From patent publication US20040023884A1, “Biologically active peptides from functional domains of bactericidal/permeability-increasing protein and uses thereof” (priority 1993, published 2004)
Entries after “also recorded” stand apart in the source; their conditions may differ.

Assays:
[1] = system: E. coli O86a:K61; experiment: Radial diffusion bactericidal assay, E. coli O86a:K61; type: cell-based; settings: FIG. 11i
[2] = system: E. coli 0111:B4 (smooth) bacteria; experiment: Radial diffusion bactericidal assay, E. coli 0111:B4; type: cell-based; settings: radial diffusion; PROBIT analysis; E. coli O111:B4 (smooth)
[3] = system: rough mutant E. coli J5 bacteria; experiment: Radial diffusion bactericidal assay, E. coli J5; type: cell-based; settings: for pmol added to well to achieve a 30 mm^2 bactericidal zone, E. coli J5: PROBIT analysis, E. coli J5 (rough)
How it was run: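 Log-phase bacteria, washed in 10 mM sodium phosphate pH 7.4, were seeded at 4×10^6 CFU/mL in underlayer agarose. BPI fragments (5 or 10 μL) went into 3 mm wells for 3 h at 37° C., then overlayer agarose was added. After overnight 37° C. incubation, clearing zones were measured by micrometer.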

[4] = system: E. coli 0113 LPS; experiment: Limulus Amoebocyte Lysate (LAL) inhibition assay; type: biochemical
How it was run: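 BPI proteolytic fragments incubated with E. coli 0113 LPS (4 ng/mL final) for 3 h at 37 °C, then diluted in D-PBS to 200 pg/mL LPS for chromogenic LAL. Lysate 25 min, substrate 20–30 min at room temperature, acetic acid stop; OD405 expressed as percent LPS inhibition.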

[5] = 3H-heparin binding assay (affinity and capacity); settings: for Heparin Capacity: heparin bound at saturation; for Kd: read-out: Heparin Affinity; for cpm ^3H-Heparin bound: 100 picomoles of each fragment per well, saturating 3H-heparin 20 μg/mL, mean of duplicate wells ± range
How it was run: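 Bound 3H-heparin was counted by liquid scintillation after 1 h incubation at 4 °C with fragments immobilised on PVDF-bottomed wells, then washing in blocking buffer. Signal was corrected for BSA-related background, and varying amounts of rBPI23 were used as positive control.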

[6] = system: Staphylococcus aureus; experiment: Radial diffusion bactericidal assay, Staphylococcus aureus; type: cell-based; settings: radial diffusion; PROBIT analysis; S. aureus
[7] = system: endotoxin (e.g. E. coli 01:B4); experiment: Mouse experimental endotoxemia model; set-up: species or system mice; settings: in vivo
Protocol: BPI functional domain peptides are tested for their efficacy in a mouse experimental endotoxemia model. Groups of at least 15 mice are administered an intravenous injection of endotoxin (e.g. E. coli 01:B4, Sigma Chemical Co., St. Louis, Mo.) at a LD90 dosage (e.g., 40 mg/kg). This is followed by a second intravenous injection of the test peptide in varying concentrations from about 0.1 mg/kg to about 100 mg/kg, preferably in the range of about 1 to 50 mg/kg. Injections of buffer without added peptide are used in negative control mice. The animals are observed for 7 days and mortality recorded. The efficacy of the peptides of this invention is measured by a decrease in endotoxemia-associated mortality in peptide-injected mice as compared with control mice.

[8] = system: ATIII/heparin complexes; experiment: Thrombin inactivation by ATIII/heparin complexes (Chromostrate anti-thrombin assay); type: biochemical; settings: 1.0 to 100 μg/mL
Protocol: BPI functional domain peptides BPI.2, BPI.3, BPI.4, BPI.5, BPI.6, and BPI.8, along with rBPI23 as a positive control, were assayed for their effect on thrombin inactivation by ATIII/heparin complexes according to the method of Example 3 in copending and co-assigned U.S. patent application Ser. No. 08/093,202, filed Jul. 15, 1993, incorporated by reference. Specifically, a Chromostrate™ anti-thrombin assay kit (Organon Teknika Corp., Durham, N.C.) was used to examine the inhibition of purified thrombin by preformed ATIII/heparin complexes in plasma.
Briefly, the assay was performed in 96 well microtiter plates in triplicate with a final volume per well of 200 μL. Varying concentrations of the BPI functional domain peptides ranging from 1.0 μg/mL to 100 μg/mL were assayed to determine their effect on thrombin inhibition in the presence of pre-formed ATIII/heparin complexes. The order of addition of assay components was as follows: 1) a dilution series of rBPI23 or BPI functional domain peptides or thaumatin as a control protein, with final concentrations of 100, 50, 25, 10 and 1 μg/well, diluted in PBS in a final volume of 50 μL; 2) 50 μL plasma diluted 1:100 in a buffer supplied by the manufacturer, 3) 50 μl thrombin at 1 nKat/mL in a buffer supplied by the manufacturer, and 4) 50 μL chromogenic substrate at a concentration of 1 μmol/mL in water. The reaction was allowed to proceed for 10 minutes at 37° C. and stopped with the addition of 50 μL 0.1M citric acid. The colorimetric reaction was quantitated on a microplate reader as described in Example 3.

[9] = In vivo APTT in heparinized rats; set-up: species or system Sprague-Dawley rats; settings: 100 U/kg heparin i.v., test protein 5 minutes later, blood 2 minutes after
Protocol: The in vivo effect of exemplary BPI combination peptides on APTT in heparinized rats was determined and compared with the in vivo effect of rBPI23. APTT is lengthened by the presence of endogenous or exogenous inhibitors of thrombin formation, such as therapeutically administered heparin. Agents which neutralize the anti-coagulant effects of heparin will reduce the APTT as measured by this test. Sprague-Dawley rats housed under NIH guidelines were administered with 100 U/kg heparin by bolus intravenous injections via the animals' tail vein followed 5 minutes later by administration of varying amounts of test or control protein as compared with rBPI23. The APTT was then determined from blood samples collected from the abdominal aorta 2 minutes after the administration of the test or control protein. The APTT of untreated animals, as well as animals treated only with a BPI peptide, was also determined.

[10] = system: LPS-stimulated NO production by RAW 264.7 cells; experiment: LPS-stimulated NO production by RAW 264.7 cells; type: cell-based, mouse
Protocol: An additional LPS neutralization screening assay for BPI functional domain peptides was developed using an assay for NO production in mouse cells treated with LPS (see Lorsbach et al., 1993, J. Biol. Chem. 268: 1908-1913). In this assay, mouse RAW 264.7 cells (ATCC Accession No. TIB71) were treated with bacterial LPS. The cells were incubated in 96-well plates and stimulated for 2 hours with E. coli 0113 LPS or zymosan, in the presence or absence of _-interferon, rLBP, fetal bovine serum (FBS) or normal human serum (NHS), or rBPI21Δcys. After this incubation, the cells were washed with fresh media and incubated overnight in media containing 10% FCS. The NO released from the cells accumulated in the media and spontaneously converted to nitrite. This nitrite was assayed in situ by the Griess reaction, as follows. The nitrite was reacted with the primary amine of an added sulfanilamide and formed a diazonium salt. This salt was then reacted with added naphthylethylenediamine to form a red azo-dyc. The Griess reaction was performed at room temperature in about 10 minutes. The amount of produced NO was estimated from a standard curve of Griess reaction products determined spectrophotometrically as Absorbance at a wavelength of 550 nm.

[11] = system: E. coli strain 07-K1; experiment: Radial diffusion bactericidal assay, E. coli 07-K1; type: cell-based; settings: FIG. 10c
Protocol: BPI proteolytic fragments produced according to Example 1 were screened for bactericidal effects using rough mutant E. coli J5 bacteria in a radial diffusion assay. Specifically, an overnight culture of E. coli J5 was diluted 1:50 into fresh tryptic soy broth and incubated for 3 hours at 37° C. to attain log phase growth of the culture. Bacteria were then pelleted at 3,000 rpm for 5 minutes in a Sorvall RT6000B centrifuge (Sorvall Instruments, Newton, Conn.). 5 mL of 10 mM sodium phosphate buffer (pH 7.4) was added and the preparation was re-pelleted. […] The bacteria were diluted to 4×10^6 CFU/mL in 10 mL of molten underlayer agarose (at approximately 45° C.) and inverted repeatedly to mix in 15 mL polypropylene tubes conventionally used for this purpose.
The entire contents of such tubes were then poured into a level square petri dish and distributed evenly by rocking the dish side-to-side. […] A series of wells were then punched into the hardened agarose using a sterile 3 mm punch attached to a vacuum apparatus. The punch was sterilized with 100% alcohol and allowed to air dry prior to use to avoid contaminating the bacterial culture.
5 or 10 μL of each of the BPI fragments were carefully pipetted into each well. As a negative control, dilution buffer (pH 8.3) was added to a separate well, and rBPI23 at concentrations of 5 μg/mL and 1 μg/mL were also added as positive controls. Each plate was incubated at 37° C. for 3 hours, and then 10 mL of molten overlayer agarose (at approximately 45° C.) was added into the level petri dish, allowed to harden and incubated overnight at 37° C. […] The bacterial zones were measured with a micrometer.
Additional experiments were performed using various other bacteria as target cells to examine the range of bactericidal killing of these BPI functional domain peptides.

[12] = In vitro heparin-mediated lengthening of APTT / clotting time of heparinized plasma; type: biochemical, human
Protocol: In vitro, the effect of BPI combination functional domain peptides was determined on heparin-mediated lengthening of activated partial […] (APTT). The APTT is lengthened by the presence of endogenous or exogenous inhibitors of thrombin formation, such as therapeutically administered heparin. Thus, agents which neutralize the anti-coagulant effects of heparin will reduce the APTT measured by the test. Citrated human plasma (200 μL) was incubated for 1 minute at 37° C. with either 15 μL of diluent (0.15 M NaCl, 0.1 M Tris-HCl, pH 7.4) or 15 μL of the diluent also containing 25 μg/mL heparin (187 units/mg). Various concentrations (from 0.0 to 56 μg/mL) of rBPI23, rBPI21Δcys, or BPI combination peptides BPI.29 (the DIII homodimer) and BPI.30 (heterodimer DII+DIII) in a volume of 15 μL were added, followed immediately by 100 μL of thrombin reagent (Catalog No. 845-4, Sigma Chemical Co., St. Louis. MO). Clotting time ([…]) was measured using a BBL Fibrometer (Becton Dickenson Microbiology Systems, Cockeysville, Md.). […] FIG. 12e illustrates the results obtained with BPI.30 on a non-log scale.

Row | Molecule | pmol added to well to achieve a 30 mm^2 bactericidal zone, E. coli O111:B4 [2] | pmol added to well to achieve a 30 mm^2 bactericidal zone, E. coli J5 ([3]; radial diffusion) | Heparin Capacity [5] | Kd [5] | cpm ^3H-Heparin bound [5] | APTT in heparinized rats (in words) [9] | also measured
1 | IKISGKWKAAKRFLK [BPI.23] | 14,445.00 pmol | 1,330.40 pmol | 285.0 ng | 693 nM | – | – | bactericidal activity (in words) [1]: showed bactericidal activity; LAL (relative difference) ([4]; alanine variant relative to BPI.2): = (no difference in the LAL assay)
2 | KWKAQFRFLKKSKVGWLILLFHKK [BPI.102] | 697,655.78 pmol | 13,814.12 pmol | 535.2 ng | 4610 nM | – | – | pmol added to well to achieve a 30 mm^2 bactericidal zone, S. aureus [6]: b (no detectable activity up to 5 μg/well); activity in the murine endotoxemia model (in words) [7]: active in this murine model
3 | thaumatin [reference compound] | – | – | – | – | 7,432 ± 83 cpm | no effect on APTT times in heparinized animals | heparin neutralization effect (in words) [8]: no neutralizing effect
4 | rBPI23: recombinant 23 kD amino-terminal fragment, approximately the first 199 amino acid residues of human BPI (protein) VNPGVVVRISQKGLDYASQQGTAALQKELKRIKIPDYSDSFKIKHLGKGHYSFYSMDIREFQLPSSQISMVPNVGLKFSISNANIKISGKWKAQKRFLKMSGNFDLSIEGMSISADLKLGSNPTSGKPTITCSSCSSHINSVHVHISKSKVGWLIQLFHKKIESALRN | – | – | – | – | 51,222 ± 1,808 cpm | administration of about 5 mg/kg results in a APTT of the heparinized and BPI-treated animals that is almost the same as the untreated control animals | IC50 of inhibition of LPS-stimulated NO production [10]: 0.03 to 0.1 µg/mL; lowest amount with measurable bactericidal activity [3]: 0.75 pmol/well; bactericidal activity (in words) ([3]; radial diffusion, E. coli J5): showed bactericidal activity; IC50 ([4]; read-out: IC50 of inhibition of the LPS-induced LAL reaction): 9 nM; bactericidal activity (in words) [11]: no bactericidal activity at concentrations of 100 μg/mL; also recorded: low bactericidal activity even at concentrations of 1000 μg/mL; effect on the clotting time of heparinized blood (in words) ([12]; FIG. 12g): smaller effect; effect on heparin-mediated lengthening of APTT (in words) ([12]; citrated human plasma, 25 μg/mL heparin, 0.0 to 56 μg/mL): inhibits the heparin-mediated lengthening of APTT
